Source: patent US11992490B2, “Use of JAK1 inhibitors for the treatment of cutaneous lupus erythematosus and Lichen planus (LP)” (Incyte Corporation, priority 2019, dated 2024)
Each block holds one molecule with its values, some of them ahead of it.

Columns and labels:
[1] = tested on: patients with systemic lupus erythematosus; conditions: cited from earlier work
[2] = tested on: CLE-typical genes in NHEK; test: Gene expression (RNA sequencing, KEGG pathways) in eNA-stimulated NHEK; format: cell-based, human; conditions: for Count: number of genes >2-fold downregulated: NHEK
Protocol: To analyze the functional principle and effect of JAK inhibition, the following established in vitro models of CLE were used. Immortalized keratinocytes (HaCaT), were acquired from CLS Cell Lines Service GmbH, Eppelheim, Germany), normal human epidermal keratinocytes (NHEKs, FC-0025) and Human epidermis equivalents (epiCS, CS-1001) from CellSystems, Troisdorf, Germany. These cell lines were cultured according the manufactures protocols. Cultured keratinocytes were stimulated with endogenous nucleic acids (eNA, 1.25 μg/mL) isolated from unstimulated keratinocytes using the “Genomic DNA from tissue” kit (Machery-Nagel, Dueren, Germany). Lipofectamine 2000 (Invitrogen, Carlsbad, USA) functioned as a transfection reagent (2.5 μL/mL). […] All experiments were implemented in biological triplicates. Enzyme-linked immunosorbent assays for human CXCL10 (DY266-05 R&D systems) were performed using DuoSet Ancillary Reagent Kit 2 (DY008 R&D systems) according to the supplied protocol, measured by Synergy HT Multi-Detection Multiplate Reader (BioTek, Winooski, VT, USA) and read out with Gen5 software (version 1.11.5).
To investigate the efficacy of pharmacological JAK1 inhibition, in vitro analyses in three different CLE-models were performed (i) NHEK-cells, (ii) HaCaT-cells and (iii) 3D epidermis equivalents.

[3] = molecular target: human JAK1 (a.a. 837-1142) (Homo sapiens, UniProt P23458); test: In vitro JAK kinase assay (HTRF), JAK1; format: biochemical; conditions: 1 mM ATP
[4] = molecular target: human JAK2 (a.a. 828-1132) (Homo sapiens (Human), UniProt O60674); test: In vitro JAK kinase assay (HTRF), JAK2; format: biochemical; conditions: JAK2/JAK1 IC50 ratio, 1 mM ATP
human JAK2 (a.a. 828-1132), sequence (O60674 828-1132): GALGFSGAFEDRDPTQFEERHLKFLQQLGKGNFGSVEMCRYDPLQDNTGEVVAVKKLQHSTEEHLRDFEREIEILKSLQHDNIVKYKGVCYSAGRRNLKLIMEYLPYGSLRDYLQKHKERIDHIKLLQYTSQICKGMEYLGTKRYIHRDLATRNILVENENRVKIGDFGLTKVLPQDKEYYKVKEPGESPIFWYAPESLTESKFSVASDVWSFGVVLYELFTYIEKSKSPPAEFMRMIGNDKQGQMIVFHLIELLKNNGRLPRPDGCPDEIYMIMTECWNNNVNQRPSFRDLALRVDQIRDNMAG

[5] = tested on: TREX1−/− mice; test: Topical treatment of CLE-like lesions in UV-stimulated lupus-prone TREX1-/- mice; format: in vivo, mouse; conditions: 1% topical, seven days
From the text: TREX1^−/− mice (generated on C57BL/6J background; Cancer Research Institute, London, UK) were bred and maintained under specific pathogen-free conditions at the animal core facility of UKB Bonn (HET, Bonn, Germany). TREX1^−/− mice (n=8) were back-shaved and treated with 0.2% DNFB (1-Fluor-2,4-dinitrobenzol, Sigma Aldrich). 4 days later, UV-irradiation on 3 sequential days started with 450 mJ/cm^2 UVB for 115 seconds per day using UV801KL (Waldmann, Villingen-Schwenningen, Germany). For 7 days 1% INCB039110 or vehicle solved in DMSO and olive oil (50 μL per mouse) were applied topically. Every day photos of mice were taken and every 2 days mice were weighed.

[6] = tested on: JAK1-phosphorylation in HaCaT keratinocytes; test: JAK1-phosphorylation (anti-pJAK1 immunofluorescence) in eNA-stimulated HaCaT; format: cell-based, human; conditions: inhibitor 1 μM
[7] = tested on: MRL-lpr mice; test: Topical treatment of CLE-like lesions in lupus-prone MRL-lpr mice; format: in vivo, mouse
From the text: Topical treatment with JAK1-selective INCB054707 started with the MRL-lpr Mice at 11 weeks of age.

[8] = tested on: SLE patients; conditions: cited from earlier work
[9] = second independent experiment, dose-response
[10] = topical, 11 to 22 weeks, compared to placebo-treated mice

IC50 [3]: < 10 nM
JAK2/JAK1 [4]: >10
Molecule: N#CCC1(n2cc(-c3ncnc4[nH]ccc34)cn2)CN(C2CCN(C(=O)c3ccnc(C(F)(F)F)c3F)CC2)C1 [Compound 1, {1-{1-[3-Fluoro-2-(trifluoromethyl)isonicotinoyl]piperidin-4-yl}-3-[4-(7H-pyrrolo[2,3-d]pyrimidin-4-yl)-1H-pyrazol-1-yl]azetidin-3-yl}acetonitrile]
Count: number of genes >2-fold downregulated ([2]; Arachidonic acid metabolism hsa00590): 4
Count: number of genes >2-fold downregulated ([2]; Chemokine signalling pathway hsa04062): 5
Count: number of genes >2-fold downregulated ([2]; Cytokine-cytokine receptor interaction hsa04060): 9
Count: number of genes >2-fold downregulated ([2]; Cytosolic DNA-sensing pathway hsa04623): 3
Count: number of genes >2-fold downregulated ([2]; Ether lipid metabolism hsa00565): 3
Count: number of genes >2-fold downregulated ([2]; Linoleic acid metabolism hsa00591): 3
Count: number of genes >2-fold downregulated ([2]; Toll-like receptor signalling pathway hsa04620): 4
Count: number of genes >2-fold downregulated ([2]; alpha-Linolenic acid metabolism hsa00592): 3
downregulated expression of CLE-typical genes ([2]; eNA-stimulated NHEK, p<0.05): > 2 fold
histological features: epidermal thickness and infiltrating dermal immune cells [5]: significantly improved
lesional skin regarding erythema, induration, scaling and size [5]: continuously improved
lupus-skin-activity-score (adapted CLASI score) ([5]; compared to placebo-treated mice): significantly reduced
activation of JAK1 (JAK1-phosphorylation) [6]: significantly decreased

IC50 [3]: < 10 nM
JAK2/JAK1 [4]: >10
Molecule: C[C@@H](CO)NCc1cc(OC2CCN([C@H]3C[C@](CC#N)(n4cc(-c5ncnc6[nH]ccc56)cn4)C3)CC2)nc(C(F)(F)F)c1 [Compound 23, {trans-3-(4-{[4-({[(1S)-2-hydroxy-1-methylethyl]amino}methyl)-6-(trifluoromethyl)pyridin-2-yl]oxy}piperidin-1-yl)-1-[4-(7H-pyrrolo[2,3-d]pyrimidin-4-yl)-1H-pyrazol-1-yl]cyclobutyl}acetonitrile]

IC50 [3]: < 10 nM
JAK2/JAK1 [4]: >10
Molecule: C[C@@H](O)CNCc1cc(OC2CCN([C@H]3C[C@](CC#N)(n4cc(-c5ncnc6[nH]ccc56)cn4)C3)CC2)nc(C(F)(F)F)c1 [Compound 24, {trans-3-(4-{[4-({[(2R)-2-hydroxypropyl]amino}methyl)-6-(trifluoromethyl)pyridin-2-yl]oxy}piperidin-1-yl)-1-[4-(7H-pyrrolo[2,3-d]pyrimidin-4-yl)-1H-pyrazol-1-yl]cyclobutyl}acetonitrile]

IC50 [3]: < 10 nM
JAK2/JAK1 [4]: >10
Molecule: C[C@H](NC(=O)c1cc(F)c(N2CC(CC#N)(n3cc(-c4ncnc5[nH]ccc45)cn3)C2)cc1F)C(F)(F)F [Compound 16, 4-{3-(cyanomethyl)-3-[4-(7H-pyrrolo[2,3-d]pyrimidin-4-yl)-1H-pyrazol-1-yl]azetidin-1-yl}-2,5-difluoro-N-[(1S)-2,2,2-trifluoro-1-methylethyl]benzamide]

IC50 [3]: < 10 nM
JAK2/JAK1 [4]: >10
Molecule: N#CC[C@]1(n2cc(-c3ncnc4[nH]ccc34)cn2)C[C@H](N2CCC(Oc3cc(CN4CCC[C@@H]4CO)cc(C(F)(F)F)n3)CC2)C1 [Compound 13, {trans-3-(4-{[4-{[(2R)-2-(hydroxymethyl)pyrrolidin-1-yl]methyl}-6-(trifluoromethyl)pyridin-2-yl]oxy}piperidin-1-yl)-1-[4-(7H-pyrrolo[2,3-d]pyrimidin-4-yl)-1H-pyrazol-1-yl]cyclobutyl}acetonitrile]

Continued, molecule first:

Molecule: CCS(=O)(=O)N1CC(CC#N)(n2cc(-c3ncnc4[nH]ccc34)cn2)C1 [baricitinib]
efficacy in treatment of SLE ([1]; 2 mg or 4 mg once daily for 24 weeks, vs placebo): not effective
CLASI activity score ([1]; exploratory end point): no improvement

Molecule: N#CC[C@H](C1CCCC1)n1cc(-c2ncnc3[nH]ccc23)cn1 [Ruxolitinib, (3R)-3-cyclopentyl-3-[4-(7H-pyrrolo[2,3-d]pyrimidin-4-yl)-1H-pyrazol-1-yl]propanenitrile, reference compound]
activation of JAK1 (JAK1-phosphorylation) [6]: significantly decreased

Molecule: Cc1n[nH]c(C)c1-c1cnn(C2(CC#N)CN(c3cc(F)c(C(=O)N[C@@H](C)C(F)(F)F)cc3F)C2)c1 [INCB054707]
cumulative skin lesion disease burden [7, 9]: significant dose-dependent effects
daily cutaneous skin lesion score [7, 9]: significant dose-dependent effects
incidence of mice with skin lesions [7, 9]: significant dose-dependent effects
cumulative skin lesion disease burden (area under the curve) ([7]; topical, 11 to 22 weeks): significantly reduced
cutaneous skin lesion score [7, 10]: significantly reduced
incidence of mice with skin lesions [7, 10]: significantly reduced
inflammatory markers, RNAseq of skin biopsy ([7]; topical, dose-dependent): downregulation of multiple inflammatory markers
lesional skin regarding erythema, induration, scaling and size ([7]; topical, from 11 weeks to 22 weeks of age): continuously improved

B1: anifrolumab: anti-IFNαβ-receptor antibody (antibody, chains of the INN, looked up)
heavy: EVQLVQSGAEVKKPGESLKISCKGSGYIFTNYWIAWVRQMPGKGLESMGIIYPGDSDIRYSPSFQGQVTISADKSITTAYLQWSSLKASDTAMYYCARHDIEGFDYWGRGTLVTVSSASTKGPSVFPLAPSSKSTSGGTAALGCLVKDYFPEPVTVSWNSGALTSGVHTFPAVLQSSGLYSLSSVVTVPSSSLGTQTYICNVNHKPSNTKVDKRVEPKSCDKTHTCPPCPAPEFEGGPSVFLFPPKPKDTLMISRTPEVTCVVVDVSHEDPEVKFNWYVDGVEVHNAKTKPREEQYNSTYRVVSVLTVLHQDWLNGKEYKCKVSNKALPASIEKTISKAKGQPREPQVYTLPPSREEMTKNQVSLTCLVKGFYPSDIAVEWESNGQPENNYKTTPPVLDSDGSFFLYSKLTVDKSRWQQGNVFSCSVMHEALHNHYTQKSLSLSPG
light: EIVLTQSPGTLSLSPGERATLSCRASQSVSSSFFAWYQQKPGQAPRLLIYGASSRATGIPDRLSGSGSGTDFTLTITRLEPEDFAVYYCQQYDSSAITFGQGTRLEIKRTVAAPSVFIFPPSDEQLKSGTASVVCLLNNFYPREAKVQWKVDNALQSGNSQESVTEQDSKDSTYSLSSTLTLSKADYEKHKVYACEVTHQGLSSPVTKSFNRGEC
CLASI skin score [8]: significantly reduced
